From ChEMBL document CHEMBL1909046, “DrugMatrix in vitro pharmacology data”

Key:
[1] = molecular target: T1, 5-hydroxytryptamine receptor 2C (Homo sapiens, UniProt P28335); test: DRUGMATRIX: Serotonin (5-Hydroxytryptamine) 5-HT2C radioligand binding (ligand: [3H] Mesulergine); type: cell membranes, CHO-K1, Membrane; conditions: Not Active = under 50% inhibition at 10 µM; for Ki: read-out: Ki
T1 sequence (P28335 whole entry): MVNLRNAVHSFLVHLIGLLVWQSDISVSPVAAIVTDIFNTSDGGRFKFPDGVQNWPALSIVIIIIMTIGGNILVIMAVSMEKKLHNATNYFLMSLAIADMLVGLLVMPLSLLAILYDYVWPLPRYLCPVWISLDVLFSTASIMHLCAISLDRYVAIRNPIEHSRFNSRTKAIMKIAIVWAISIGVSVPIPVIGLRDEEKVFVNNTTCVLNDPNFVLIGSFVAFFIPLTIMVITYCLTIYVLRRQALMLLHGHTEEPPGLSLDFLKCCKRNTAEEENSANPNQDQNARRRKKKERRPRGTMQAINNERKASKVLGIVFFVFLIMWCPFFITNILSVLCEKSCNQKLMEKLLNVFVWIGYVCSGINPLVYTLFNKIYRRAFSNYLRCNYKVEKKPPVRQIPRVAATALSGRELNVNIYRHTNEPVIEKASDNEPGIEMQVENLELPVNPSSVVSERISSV

[2] = molecular target: 5-hydroxytryptamine receptor 6 (Homo sapiens, UniProt P50406); type: cell membranes, HeLa, Membrane; also: in other assays of this panel Not Active means under 50% inhibition at 10 µM
[3] = DRUGMATRIX: Nicotinic Acetylcholine radioligand binding (ligand: [125I] Epibatidine); type: cell membranes, Membrane; conditions: imr-32; Not Active = under 50% inhibition at 10 µM
[4] = molecular target: Delta-type opioid receptor (Homo sapiens, UniProt P41143); type: cell membranes, Membrane; conditions: hek293; also: in other assays of this panel Not Active means under 50% inhibition at 10 µM
[5] = DRUGMATRIX: Phosphodiesterase PDE3 enzyme inhibition (substrate: [3H]cAMP + cAMP); type: tissue-based, Homo sapiens; conditions: platelet, Not Active = under 50% inhibition at 10 µM
[6] = molecular target: T2, Receptor-type tyrosine-protein phosphatase C (Homo sapiens, UniProt P08575); parameters: species or system Escherichia coli;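 also: inhibition of CD45 enzyme activity measured using DiFMUP as substrate; in other assays of this panel Not Active means under 50% inhibition at 10 µM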
T2 sequence (P08575 whole entry): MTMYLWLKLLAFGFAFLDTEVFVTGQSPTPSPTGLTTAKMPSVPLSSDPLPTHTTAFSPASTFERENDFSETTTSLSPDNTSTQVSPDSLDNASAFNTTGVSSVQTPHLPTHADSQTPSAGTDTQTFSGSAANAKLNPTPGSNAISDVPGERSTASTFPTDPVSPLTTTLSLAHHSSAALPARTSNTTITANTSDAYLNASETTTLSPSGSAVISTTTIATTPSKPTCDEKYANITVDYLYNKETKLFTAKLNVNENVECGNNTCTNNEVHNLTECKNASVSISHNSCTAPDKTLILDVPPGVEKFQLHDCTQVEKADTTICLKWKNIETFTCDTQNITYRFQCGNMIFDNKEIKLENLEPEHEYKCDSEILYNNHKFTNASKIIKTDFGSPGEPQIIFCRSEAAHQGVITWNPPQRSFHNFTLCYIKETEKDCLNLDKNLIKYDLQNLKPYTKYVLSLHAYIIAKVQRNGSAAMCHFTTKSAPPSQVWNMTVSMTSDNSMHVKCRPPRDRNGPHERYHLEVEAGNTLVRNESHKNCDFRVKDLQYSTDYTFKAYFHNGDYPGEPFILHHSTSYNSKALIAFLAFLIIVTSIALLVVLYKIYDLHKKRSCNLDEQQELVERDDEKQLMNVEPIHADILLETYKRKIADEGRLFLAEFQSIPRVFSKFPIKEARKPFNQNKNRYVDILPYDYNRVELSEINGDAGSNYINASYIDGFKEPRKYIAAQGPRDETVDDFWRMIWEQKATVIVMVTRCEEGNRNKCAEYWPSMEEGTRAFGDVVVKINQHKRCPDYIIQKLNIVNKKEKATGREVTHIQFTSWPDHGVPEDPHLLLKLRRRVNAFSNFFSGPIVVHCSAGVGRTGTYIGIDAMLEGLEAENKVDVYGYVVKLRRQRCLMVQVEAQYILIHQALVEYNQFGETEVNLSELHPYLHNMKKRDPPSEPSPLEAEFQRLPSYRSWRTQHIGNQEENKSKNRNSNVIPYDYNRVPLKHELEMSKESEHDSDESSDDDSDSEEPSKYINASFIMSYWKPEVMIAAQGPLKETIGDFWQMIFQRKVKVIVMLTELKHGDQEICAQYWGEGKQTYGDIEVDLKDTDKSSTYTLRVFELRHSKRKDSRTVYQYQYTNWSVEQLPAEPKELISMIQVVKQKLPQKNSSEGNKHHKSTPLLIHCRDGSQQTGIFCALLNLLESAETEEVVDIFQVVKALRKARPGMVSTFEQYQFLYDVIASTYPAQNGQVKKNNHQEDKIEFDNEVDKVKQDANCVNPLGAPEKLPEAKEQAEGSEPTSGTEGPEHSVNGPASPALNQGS

Cytochrome P450 1A2 = molecular target: T3, Cytochrome P450 1A2 (Homo sapiens, UniProt P05177); conditions: bti-tn-5b1-4; also: in other assays of this panel Not Active means under 50% inhibition at 10 µM
T3 sequence (P05177 whole entry): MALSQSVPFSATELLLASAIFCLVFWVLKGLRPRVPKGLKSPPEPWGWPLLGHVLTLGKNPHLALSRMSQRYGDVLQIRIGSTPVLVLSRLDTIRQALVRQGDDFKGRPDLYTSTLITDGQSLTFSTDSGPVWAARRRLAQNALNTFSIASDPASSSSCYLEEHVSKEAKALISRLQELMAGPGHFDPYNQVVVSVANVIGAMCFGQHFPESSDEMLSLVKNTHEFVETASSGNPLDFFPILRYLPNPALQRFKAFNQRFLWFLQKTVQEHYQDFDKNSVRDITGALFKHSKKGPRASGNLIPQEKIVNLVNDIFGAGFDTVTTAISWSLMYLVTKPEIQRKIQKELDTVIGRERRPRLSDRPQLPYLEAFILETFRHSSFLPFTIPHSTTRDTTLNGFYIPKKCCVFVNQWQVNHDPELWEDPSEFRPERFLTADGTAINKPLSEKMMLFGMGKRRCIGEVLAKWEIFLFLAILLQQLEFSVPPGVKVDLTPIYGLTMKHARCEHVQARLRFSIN

Chain of 5-hydroxytryptamine receptor 6 (P50406 whole entry): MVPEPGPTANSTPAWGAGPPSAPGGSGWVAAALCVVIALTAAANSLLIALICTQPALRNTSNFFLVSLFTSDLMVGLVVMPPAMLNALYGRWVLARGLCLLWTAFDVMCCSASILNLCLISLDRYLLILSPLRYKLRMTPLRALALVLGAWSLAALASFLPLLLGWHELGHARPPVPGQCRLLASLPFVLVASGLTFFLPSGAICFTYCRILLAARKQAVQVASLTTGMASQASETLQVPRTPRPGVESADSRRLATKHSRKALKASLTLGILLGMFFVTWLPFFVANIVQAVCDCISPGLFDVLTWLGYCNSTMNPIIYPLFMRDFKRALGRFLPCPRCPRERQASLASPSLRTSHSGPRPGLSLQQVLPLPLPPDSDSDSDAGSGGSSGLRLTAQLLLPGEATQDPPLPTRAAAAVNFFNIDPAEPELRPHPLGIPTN
Chain of Delta-type opioid receptor (P41143 whole entry): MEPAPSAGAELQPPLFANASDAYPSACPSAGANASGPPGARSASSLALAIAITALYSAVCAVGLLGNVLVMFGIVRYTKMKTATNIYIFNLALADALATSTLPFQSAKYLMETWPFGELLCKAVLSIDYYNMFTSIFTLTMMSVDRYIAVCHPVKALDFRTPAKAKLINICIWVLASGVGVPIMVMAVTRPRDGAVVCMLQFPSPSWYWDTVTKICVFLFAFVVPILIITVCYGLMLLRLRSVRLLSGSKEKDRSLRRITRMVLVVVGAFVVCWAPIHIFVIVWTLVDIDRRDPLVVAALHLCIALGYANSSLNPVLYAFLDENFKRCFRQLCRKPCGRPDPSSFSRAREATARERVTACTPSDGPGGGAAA

In the case of `COc1ccc2c3c1O[C@H]1C[C@@H](O)C=C[C@@]31CCN(C)C2` [GALANTAMINE], the IC50 ([1]; cho-k1) is reported as “Not Active”, the IC50 ([2]; hela) is reported as “Not Active” and the IC50 [3] is reported as “Not Active”. For the same compound, the Ki [3] was “Not Active”, the IC50 [4] was “Not Active” and the IC50 [5] was “Not Active”. For the same compound, the Ki [5] was “Not Active” and the IC50 [6] was “Not Active”.
For `CC(C)=CCC/C(C)=C/CO` [GERANIOL], the IC50 ([1]; cho-k1) was “Not Active”, the IC50 ([2]; hela) was “Not Active” and the IC50 [3] was “Not Active”. The Ki [3] was “Not Active”, the IC50 [4] was “Not Active” and the IC50 [5] was “Not Active”. The Ki [5] was “Not Active” and the IC50 [6] was “Not Active”.
For `Oc1c(Cl)cc(Cl)c(Cl)c1Cc1c(O)c(Cl)cc(Cl)c1Cl` [HEXACHLOROPHENE], the IC50 ([1]; read-out: IC50) was 4600 nM, the Ki [1] was 2410 nM and the IC50 ([2]; hela) was “Not Active”. The IC50 [3] was “Not Active”, the Ki [3] was “Not Active” and the IC50 [4] was “Not Active”. The IC50 ([5]; read-out: IC50) was 1850 nM and the IC50 [6] was “Not Active”.
In the case of `CC(=O)[C@@]1(O)CC[C@H]2[C@@H]3CCC4=CC(=O)CC[C@]4(C)[C@H]3CC[C@@]21C` [HYDROXYPROGESTERONE], the IC50 ([1]; cho-k1) is reported as “Not Active”, the IC50 ([2]; hela) is reported as “Not Active” and the IC50 [3] is reported as “Not Active”. For the same compound, the Ki [3] was “Not Active”, the IC50 [4] was “Not Active” and the IC50 [5] was “Not Active”. For the same compound, the Ki [5] was “Not Active” and the IC50 [6] was “Not Active”.
For `O=c1cc(N2CCOCC2)oc2c(-c3ccccc3)cccc12` [LY-294002], the IC50 ([1]; read-out: IC50) was 1000 nM, the Ki [1] was 525 nM and the IC50 ([2]; hela) was “Not Active”. For the same compound, the IC50 [3] was “Not Active”, the Ki [3] was “Not Active” and the IC50 [4] was “Not Active”. The IC50 [5] was “Not Active”, the Ki [5] was “Not Active” and the IC50 [6] was “Not Active”.
In the case of `CC(=O)O[C@H]1C(=O)[C@@]2(C)[C@H]([C@H](OC(=O)c3ccccc3)[C@]3(O)C[C@H](OC(=O)[C@H](O)[C@@H](NC(=O)c4ccccc4)c4ccccc4)C(C)=C1C3(C)C)[C@]1(OC(C)=O)CO[C@@H]1C[C@@H]2O` [PACLITAXEL], the IC50 ([1]; cho-k1) is reported as “Not Active”, the IC50 ([2]; hela) is reported as “Not Active” and the IC50 [3] is reported as “Not Active”. For the same compound, the Ki [3] was “Not Active”, the IC50 [5] was “Not Active” and the Ki [5] was “Not Active”. The IC50 [6] was “Not Active”, the IC50 (Cytochrome P450 1A2) was “Not Active” and the Ki (Cytochrome P450 1A2) was “Not Active”.
In the case of `CC(C)NCC(O)COc1cccc2[nH]ccc12` (stereo not drawn) [PINDOLOL], the IC50 ([1]; cho-k1) is reported as “Not Active”, the IC50 ([2]; hela) is reported as “Not Active” and the IC50 [3] is reported as “Not Active”. The Ki [3] was “Not Active”, the IC50 [4] was “Not Active” and the IC50 [5] was “Not Active”. For the same compound, the Ki [5] was “Not Active” and the IC50 [6] was “Not Active”.
For `CCn1cc(C(=O)O)c(=O)c2cnc(N3CCCC3)nc21` [PIROMIDIC ACID], the IC50 ([1]; cho-k1) was “Not Active”, the IC50 ([2]; hela) was “Not Active” and the IC50 [3] was “Not Active”. The Ki [3] was “Not Active”, the IC50 [4] was “Not Active” and the IC50 [5] was “Not Active”. The Ki [5] was “Not Active” and the IC50 [6] was “Not Active”.
In the case of `CCCNCC(O)COc1ccccc1C(=O)CCc1ccccc1` (stereo not drawn) [PROPAFENONE], the IC50 ([2]; read-out: IC50) is reported as 1860 nM, the Ki ([2]; read-out: Ki) is reported as 865 nM and the IC50 [3] is reported as “Not Active”. The Ki [3] was “Not Active”, the IC50 [4] was “Not Active” and the IC50 [5] was “Not Active”. The Ki [5] was “Not Active” and the IC50 [6] was “Not Active”.
For `CC(C)c1cccc(C(C)C)c1O` [PROPOFOL], the IC50 ([1]; read-out: IC50) was 11600 nM, the Ki [1] was 6050 nM and the IC50 ([2]; hela) was “Not Active”. For the same compound, the IC50 [3] was “Not Active”, the Ki [3] was “Not Active” and the IC50 [4] was “Not Active”. For the same compound, the IC50 [5] was “Not Active”, the Ki [5] was “Not Active” and the IC50 [6] was “Not Active”.
